Structures can show the parent of a compound that is named as a salt.
How the values were obtained:
[1] = test system: Yoshida tumour; test: Chemopreventive effects on Yoshida tumour inoculation and thriving; format: in vivo, Sprague-Dowley rats
Description: In order to elucidate the actual chemoprevention antitumour Potentialities of L-aC, 125 Sprague-Dowley rats (4 months old, mean weight: 200 g), under standard feeding and temperature conditions (25° C.), were divided in 5 groups and treated as follows:
Group 1: 25 rats were intraperitoneally treated, on alternate days for 10 days, with 25 mg of L-aC diluted in 5 ml of saline solution. On day 10 they were inoculated with Yoshida tumour.
Group 2: 25 rats were intraperitoneally treated, on alternate days for 10 days, with 25 mg of L-aC diluted in 5 ml of saline solution. On day 10 they were inoculated with Yoshida tumour. Starting from day 11, they were further treated intraperitoneally, on alternate days, with 25 mg of L-aC diluted in 5 ml of saline solution, for a further 10 days.
Group 3: 25 previously untreated rats were inoculated, on day 10, with Yoshida tumour. Starting from day 14 they were intraperitoneally treated, on alternate days, with 25 mg of L-aC diluted in 5 ml of saline solution for 10 days.
Group 4: 25 previously untreated rats were inoculated on day 10 with Yoshida tumour. On day 18 to 24 they were intraperitoneally treated, on alternate days, with 25 mg of L-aC diluted in 5 ml of saline solution for 10 days.
Group 5: 25 previously untreated rats were inoculated on day 10 with Yoshida tumour. On day 18 to 24 they were subjected to emptying, on alternate days, of 5 ml of ascitic fluid which was substituted with 50 mg of L-aC diluted in 5 ml of saline solution.
The onset and evolution of the tumour were checked by daily observation and weighing.

[2] = test system: Cells from Larynx Carcinoma Explant; test: In vitro short-term chemosensitivity assay (MTT); format: cell-based, human
Description: The effects of L-aC on cells from 4 primitive epidermoid carcinomas of the larynx and 1 primitive undifferentiated carcinoma of the nasopharynx were tested.
Tissue fragments from the tumour mass were mechanically dissociated in Hank's solutions adding an antibiotic and an antifungal to obtain a cell monosuspension free of agglomerates. The resulting suspension was centrifuged at 1200 rpm for 5 minutes and the pellet was resuspended in MEM culture medium supplemented with 10% of patient serum, to obtain a concentration of 10^5 cells/ml. Subsequently, 180 μl of the resulting suspension were dispensed in microplate wells and incubated under 5% CO2 atmosphere at 37° C. for 3 days. After that, the antitumor medicaments were added in the amount of 20 μl for each well, at a concentration of 0.1×, 1× and 10× the maximum serum concentrations that can usually be reached in clinical practice. 24 h after the beginning of the exposure to the antitumour medicament, 100 μl of MTT were added, and after 4 h, a further 150 μl of dimethylsulfoxide were added.
The optical density was evaluated by a Uniscan microspectrophotometer with a […] wavelength filter. Cytotoxicity was evaluated as percentage of the optical density of the treated sample compared with the optical density of the control.
Bleomycin (BLEC), […] (CDDP), 5-fluoruracil (5-FU), vincristine (VCR), epidoxorubicin (Epi-Dx) and methotrexate (MTX) were tested for comparison purposes.
L-aC was tested at the following concentrations: 0.2-2-20 mg/ml.
In vitro short-term chemosensitivity assay (according to Hill and coll.)
(Cell Vitality Percentage After Exposure to the Antitumoral)—Raw Data
(Cells from Larynx Carcinoma Explant)

Which results are given for `CC(=O)OC(CC(=O)[O-])C[N+](C)(C)C` [L-aC, L-acetylcarnitine hydrochloride]?
surviving animals ([1]; Group 3, inoculated day 10, 25 mg L-aC i.p. alternate days from day 14 for 10 days, day 27): 16; surviving animals ([1]; Group 3, inoculated day 10, 25 mg L-aC i.p. alternate days from day 14 for 10 days, day 30): 16; surviving animals ([1]; Group 3, inoculated day 10, 25 mg L-aC i.p. alternate days from day 14 for 10 days, day 45): 16; ascites amount in survivors ([1]; Group 3, day 27): markedly low or even no ascites amount; animals still alive ([1]; Group 4 (25 mg L-aC i.p. alternate days day 18 to 24, inoculated day 10), day 27 of observation): 11/25; surviving animals ([1]; Group 4, inoculated day 10, 25 mg L-aC i.p. alternate days day 18 to 24, day 01 of observation): 25; surviving animals ([1]; Group 4, inoculated day 10, 25 mg L-aC i.p. alternate days day 18 to 24, day 03): 25; surviving animals ([1]; Group 4, inoculated day 10, 25 mg L-aC i.p. alternate days day 18 to 24, day 05): 25; surviving animals ([1]; Group 4, inoculated day 10, 25 mg L-aC i.p. alternate days day 18 to 24, day 07): 25; surviving animals ([1]; Group 4, inoculated day 10, 25 mg L-aC i.p. alternate days day 18 to 24, day 09): 25; surviving animals ([1]; Group 4, inoculated day 10, 25 mg L-aC i.p. alternate days day 18 to 24, day 10): 25; surviving animals ([1]; Group 4, inoculated day 10, 25 mg L-aC i.p. alternate days day 18 to 24, day 11): 25; surviving animals ([1]; Group 4, inoculated day 10, 25 mg L-aC i.p. alternate days day 18 to 24, day 14): 25; surviving animals ([1]; Group 4, inoculated day 10, 25 mg L-aC i.p. alternate days day 18 to 24, day 18): 25; surviving animals ([1]; Group 4, inoculated day 10, 25 mg L-aC i.p. alternate days day 18 to 24, day 21): 15; surviving animals ([1]; Group 4, inoculated day 10, 25 mg L-aC i.p. alternate days day 18 to 24, day 24): 13; surviving animals ([1]; Group 4, inoculated day 10, 25 mg L-aC i.p. alternate days day 18 to 24, day 27): 11; surviving animals ([1]; Group 4, inoculated day 10, 25 mg L-aC i.p. alternate days day 18 to 24, day 30): 11; surviving animals ([1]; Group 4, inoculated day 10, 25 mg L-aC i.p. alternate days day 18 to 24, day 45): 11; ascites amount in survivors ([1]; Group 4, day 27): markedly low or even no ascites amount; day of observation by which all animals died ([1]; Group 5 (50 mg L-aC replacing 5 ml ascitic fluid, alternate days day 18 to 24)): ≤ 26 days; surviving animals ([1]; Group 5, inoculated day 10, 50 mg L-aC replacing 5 ml ascitic fluid alternate days day 18 to 24, day 01 of observation): 25; surviving animals ([1]; Group 5, inoculated day 10, 50 mg L-aC replacing 5 ml ascitic fluid alternate days day 18 to 24, day 03): 25; surviving animals ([1]; Group 5, inoculated day 10, 50 mg L-aC replacing 5 ml ascitic fluid alternate days day 18 to 24, day 05): 25; surviving animals ([1]; Group 5, inoculated day 10, 50 mg L-aC replacing 5 ml ascitic fluid alternate days day 18 to 24, day 07): 25; surviving animals ([1]; Group 5, inoculated day 10, 50 mg L-aC replacing 5 ml ascitic fluid alternate days day 18 to 24, day 09): 25; surviving animals ([1]; Group 5, inoculated day 10, 50 mg L-aC replacing 5 ml ascitic fluid alternate days day 18 to 24, day 10): 25; surviving animals ([1]; Group 5, inoculated day 10, 50 mg L-aC replacing 5 ml ascitic fluid alternate days day 18 to 24, day 11): 25; surviving animals ([1]; Group 5, inoculated day 10, 50 mg L-aC replacing 5 ml ascitic fluid alternate days day 18 to 24, day 14): 25; surviving animals ([1]; Group 5, inoculated day 10, 50 mg L-aC replacing 5 ml ascitic fluid alternate days day 18 to 24, day 18): 25; surviving animals ([1]; Group 5, inoculated day 10, 50 mg L-aC replacing 5 ml ascitic fluid alternate days day 18 to 24, day 21): 8; surviving animals ([1]; Group 5, inoculated day 10, 50 mg L-aC replacing 5 ml ascitic fluid alternate days day 18 to 24, day 24): 3; surviving animals ([1]; Group 5, inoculated day 10, 50 mg L-aC replacing 5 ml ascitic fluid alternate days day 18 to 24, day 27): 0; surviving animals ([1]; Group 5, inoculated day 10, 50 mg L-aC replacing 5 ml ascitic fluid alternate days day 18 to 24, day 30): 0; surviving animals ([1]; Group 5, inoculated day 10, 50 mg L-aC replacing 5 ml ascitic fluid alternate days day 18 to 24, day 45): 0; general condition of surviving animals ([1]; day 45 of observation): good health; deaths during further observation ([1]; survivors, further 6 weeks): no deaths occurred; Cell Vitality Percentage After Exposure ([2]; Table 2 explant, 0.1x): 62%; Cell Vitality Percentage After Exposure ([2]; Table 2 explant, 1x): 32%; Cell Vitality Percentage After Exposure ([2]; Table 2 explant, 10x): 15%; Cell Vitality Percentage After Exposure ([2]; Table 3 explant, 0.1x): 42%; Cell Vitality Percentage After Exposure ([2]; Table 3 explant, 1x): 24%; Cell Vitality Percentage After Exposure ([2]; Table 3 explant, 10x): 7.2%; Cell Vitality Percentage After Exposure ([2]; Table 4 explant, 0.1x): 3.8%; Cell Vitality Percentage After Exposure ([2]; Table 4 explant, 1x): 1.5%; Cell Vitality Percentage After Exposure ([2]; Table 4 explant, 10x): 1.4%; Cell Vitality Percentage After Exposure ([2]; Table 5 explant, 0.1x): 63%; Cell Vitality Percentage After Exposure ([2]; Table 5 explant, 1x): 37%; Cell Vitality Percentage After Exposure ([2]; Table 5 explant, 10x): 32%
